# Measured values published in US10294212B2 (CURADEV PHARMA PRIVATE LTD., priority 2013, dated 2019).
# What was measured:
# [1] = target: Human indoleamine 2,3-dioxygenase1 (hIDO1) (Homo sapiens (Human), UniProt P14902); assay: In-vitro IDO1 enzyme assay (conversion of L-tryptophan to KYN); format: biochemical; conditions: read-out: IC50 (IDO1) Enz
# Outline: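 Kynurenine formation quantified by HPLC absorbance at 360 nm or LC/MS/MS after TCA quench and 15 min at 65 °C. Reaction: 10 nM N-His hIDO1, 30 μM tryptophan, ascorbate/methylene blue/catalase, pH 6.5 phosphate buffer, 37 °C for 30 min. Inhibition relative to 1% DMSO vehicle, fitted to IC50.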
# IDO1 in HeLa cells = IDO1 in HeLa cells (Homo sapiens (Human), UniProt P14902); assay: HeLa cell based IDO1 assay (IFNγ-induced, KYN in supernatant)
# IDO1 in HeLa cells, sequence (P14902 whole entry): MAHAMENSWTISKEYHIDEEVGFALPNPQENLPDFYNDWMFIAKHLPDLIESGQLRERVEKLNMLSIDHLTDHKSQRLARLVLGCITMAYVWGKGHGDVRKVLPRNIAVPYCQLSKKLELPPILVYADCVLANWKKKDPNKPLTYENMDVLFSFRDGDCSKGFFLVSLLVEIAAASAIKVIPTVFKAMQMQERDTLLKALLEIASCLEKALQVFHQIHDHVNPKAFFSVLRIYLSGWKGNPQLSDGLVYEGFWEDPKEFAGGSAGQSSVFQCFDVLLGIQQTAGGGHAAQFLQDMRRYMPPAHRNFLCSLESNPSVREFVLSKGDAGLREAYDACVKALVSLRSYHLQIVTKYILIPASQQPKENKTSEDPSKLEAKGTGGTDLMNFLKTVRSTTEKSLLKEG
# Outline: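 Kynurenine in the supernatant, quantified by C-18 HPLC with 360 nm absorbance after TCA hydrolysis (65 °C, 15 min), was the read-out. Compounds (typically 10 μM to 1 nM) were added in HBSS containing 80 μM tryptophan to HeLa cells pre-induced overnight with 50 ng/mL IFNγ. IC50 came from nonlinear fits of % inhibition versus 1% DMSO vehicle.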
# [2] = target: Human TDO (hTDO)-transfected CHO-K1 cells (Homo sapiens (Human), UniProt P48775); assay: CHO-K1 cell based TDO assay; conditions: hTDO cellular assay
# Human TDO (hTDO)-transfected CHO-K1 cells, sequence (P48775 whole entry): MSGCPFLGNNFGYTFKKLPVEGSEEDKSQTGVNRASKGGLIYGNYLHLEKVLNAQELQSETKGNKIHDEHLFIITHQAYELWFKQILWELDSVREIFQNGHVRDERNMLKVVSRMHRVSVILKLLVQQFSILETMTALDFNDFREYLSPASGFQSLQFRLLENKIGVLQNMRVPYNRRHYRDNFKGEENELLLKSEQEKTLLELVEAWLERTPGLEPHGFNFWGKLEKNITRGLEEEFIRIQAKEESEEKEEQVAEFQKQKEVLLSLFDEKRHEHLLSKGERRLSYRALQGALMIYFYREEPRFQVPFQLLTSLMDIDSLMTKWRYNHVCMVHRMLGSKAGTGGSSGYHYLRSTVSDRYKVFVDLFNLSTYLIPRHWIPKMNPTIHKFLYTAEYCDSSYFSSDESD
# Outline: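 Kynurenine output was read by LC/MS/MS after TCA precipitation and 15 min at 65° C. Before that, CHO-K1 cells stably carrying human TDO2 were incubated 2 h with compounds (typically 31 μM to 10 nM) and 80 μM L-tryptophan in HBSS. Decrease versus DMSO vehicle gave percent inhibition, then IC50.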
# CT-26 tumor cells = assay: Antitumor activity in syngeneic CT26/Balb/C tumor model; format: in vivo, Balb/c mice; conditions: 60 mg/kg oral BID, vs control animals
# Experimental: Tumor volume reduction by the test compounds was evaluated in a syngeneic CT26/Balb/C tumor model as described below. Balb/c mice were purchased from Vivo Bio Tech, Hyderabad, India, and housed in sterile conditions using an individually ventilated caging system manufactured by Citizen Industries Limited, Ahmedabad, India. Mice were quarantined for at least 7 days before experimentation.
# Mouse colorectal tumor forming cells, CT-26 cells (ATCC, USA), were cultured in DMEM and 10% FBS medium supplemented with lx non-essential amino acid (HiMedia) in an incubator maintained at 37QC with 95% humidity and 5% CO2. One million (1×10^6) live syngeneic CT-26 cells suspended in 0.2 ml of […] were injected subcutaneously in the right flank of each Balb/c mouse (age 6-8 weeks, weight: about 18-20 g) on day 1 under anesthesia. Eight to ten mice were used per experimental group. Subcutaneous cells formed localized tumors. Animals were visually inspected twice a day. Tumor measurements were initiated 7 days post injection using Vernier calipers. Tumor sizes at day 7 ranged typically from 80-150 mm^3. Tumor dimensions were subsequently measured every 3 to 4 days and tumor volume was determined. Assuming tumors to be ellipsoid, tumor volume was calculated using the formula: V=(D×d×d)/2
# Where D is longest diameter in mm, and d is shortest diameter in mm.
# When the average tumor volume in the mice reached 100-120 mm^3, tumor bearing mice were randomized for treatment with either test compound or vehicle alone. Test compounds were formulated generally in normal saline comprising Polyethylene Glycol (PEG400), Propylene glycol (PG) and Dimethyl Acetamide (DACM) at pH 4.5-5.0 and dosed orally at ranges 40-75 mg/kg (dose volume—5 mL/kg) twice a day. Solutions of the compounds were prepared immediately before dosing the animals. In general, tumor volume was measured at various times post-dosing from day 1 to day 34.
# A non-limiting example is provided. Tumor bearing mice were dosed orally twice a day at 40 mg/kg body weight with either vehicle control or test compound 2 formulated in 30% Polyethylene Glycol (PEG-400), 20% Propylene glycol (PG) in normal saline. Tumors were measured and tumor volumes were determined at 1, 4, 6, 9, 11, and 14 days after the first dose as described above. Animals were sacrificed on day 14. Tumor and blood samples were harvested for further analysis. Just prior to animal sacrifice, blood was drawn retro-orbitally into a tube containing 0.2% EDTA for plasma collection. The harvested tumors were weighed and snap frozen in liquid nitrogen immediately. Plasma KYN concentrations are measured for pharmacokinetic analysis using LC/MS/MS using an API4000 mass spectrometer (Applied Biosystems) coupled to a Shimadzu Prominence LC system fitted with a C18 column.
# Human indoleamine 2,3-dioxygenase1 (hIDO1), sequence (P14902 whole entry): as the sequence (P14902 whole entry) above
SMILES,IC50 [1] [nM],IC50 (IDO1 in HeLa cells) [nM],IC50 [2] [nM],reduction of tumor growth (CT-26 tumor cells)
"Nc1oc2c(Cl)nccc2c1Nc1ccc(F)c(Cl)c1 [Compound 166, 7-Chloro-N3-(3-chloro-4-fluorophenyl)furo[2,3-c]pyridine-2,3-diamine]",< 200,< 200,< 500,26%-38
"COc1cc2c(Nc3ccc(F)c(Cl)c3)c(N)oc2c(C)n1 [Compound 85, N^3-(3-Chloro-4-fluoro-phenyl)-5-methoxy-7-methyl-furo[2,3-c]pyridine-2,3-diamine]",< 200,< 200,500 to 2000,
"Nc1oc2c(-c3ccncc3)nccc2c1Nc1ccc(F)cc1 [Compound 201, N^3-(4-Fluorophenyl)-7-(pyridin-4-yl)furo[2,3-c]pyridine-2,3-diamine]",< 200,< 200,< 500,
"Cc1cc(Br)ccc1Nc1c(N)sc2ccccc12 [Compound 237, N^3-(4-Bromo-2-methylphenyl)benzo[b]thiophene-2,3-diamine]",> 1000,200 to 1000,> 2000,
"COc1cccc(Nc2c(N)sc3ccccc23)c1 [Compound 235, N^3-(3-Methoxyphenyl)benzo[b]thiophene-2,3-diamine]",200 to 1000,< 200,< 500,
"Nc1oc2c(-c3cccc4ccccc34)nccc2c1Nc1ccc(F)c(Cl)c1 [Compound 204, N^3-(3-Chloro-4-fluorophenyl)-7-(naphthalen-1-yl)furo[2,3-c]pyridine-2,3-diamine]",< 200,< 200,< 500,
"Nc1sc2ccc(Cl)cc2c1Nc1ccccc1 [Compound 130, 5-Chloro-N^3-phenylbenzo[b]thiophene-2,3-diamine]",200 to 1000,200 to 1000,> 2000,
"Nc1oc2c(C3CCCCC3)nccc2c1Nc1ccc(F)c(Cl)c1 [Compound 108, N^3-(3-Chloro-4-fluorophenyl)-7-cyclohexylfuro[2,3-c]pyridine-2,3-diamine]",< 200,< 200,500 to 2000,
"Nc1sc2ccccc2c1Nc1ccc2c(c1)OCO2 [Compound 236, N^3-(benzo[d][1,3]dioxol-5-yl)benzo[b]thiophene-2,3-diamine]",< 200,< 200,> 2000,
